Entries after “also recorded” stand apart in the source; their conditions may differ. Read-outs that look alike come from different tables or passages of the source.

Series [1] can be described thus: Cytotoxicity in uninfected PBMC. The settings on record: human, uninfected PBMC; thymidine uptake day 2 and cell counts day 6. The format is cell-based, human.
The test system of another series is PBMC. Kind of series: Cytotoxicity in uninfected PBMC. The settings on record: b68: up to 100 μM. The class given is cell-based, human.
The next series in a line: Cytotoxicity in H9 cells. The class given is cell-based, human. The settings on record: human, H9 cells; cell counts on day 6.
A further series deals with H9 cells. Kind of series: Cytotoxicity in H9 cells. The format is cell-based, human. The settings on record: b68: up to 100 μM.
Another series deals with HIV-1. Kind of series: HIV-1 p24 antigen assay in supernatants of acutely infected PBMC. The class given is cell-based. The settings on record: Human immunodeficiency virus 1; PBMC acutely infected with HIV-1. The procedure:
To determine whether the fullerene may bind tightly to inactivate the viral RT, we also measured levels of HIV-1 p24 in supernatants of treated and untreated cultures. Clarified supernatants were treated with Triton X-100 (Sigma Chemicals, St. Louis, Mo.) and tested for HIV-1 antigen by immunocapture with a commercial kit (Abbott, North Chicago, Ill.).

The next series deals with HIV-1LAI. Nature of the series: Virus inactivation assay with cell-free virus. The class given is cell-based. The settings on record: 5 to 25 μM; cell-free virus incubated 2 hours at 37° C.; RT assay day 6. As to the method: Cell culture evaluation techniques well known in the art can also be used to determine the antiviral and antivirucidal properties of the compounds of this invention. For instance about 200 50% tissue culture infective doses of the virus to be tested and 2 ml of the compound to be tested are incubated for 2 hours at 37° C. After incubation, a growth medium is added to each tube and the tube is centrifuged at about 40,000 rpm for 30 minutes at 4° C. The supernatant is removed and the virus pellet is resuspended in fresh medium. The virions are added to human PBMC that has been stimulated for 2 days with phytohemagglutinin in 25 cm^2 flasks in a total of 10 ml of growth medium. After about six days, residual virus in the supernatant are quantitated by an RT assay such as that described by R. F. Schinazi, et al., Antimicrob. Agents Chemother., 36:2423-2431, 1992, or in Current Protocols in Molecular Biology, Ed. by F. M. Ausubel, Current Protocols, Vol. 1, §9.13.3 and in Example 8, Table 2 below.
To confirm these findings, inactivation studies with HIV-1LAI were performed. […] On day 6, residual virus in the supernatant was quantitated by an RT assay, as described previously (R. F. Schinazi, et al., Antimicrob. Agents Chemother., 36:2423-2431, 1992). […]

In a further series the test system is HIV-1 HI 12.2. Nature of the series: Susceptibility of pretherapy AZT-susceptible isolate in acutely infected PBMC. The format is cell-based. The settings on record: Human immunodeficiency virus 1, PBMC, read-out: EC50 against pretherapy isolate. An excerpt: The availability of AZT-resistant and -susceptible viruses allowed us to evaluate the compounds of this invention for their susceptibilities to these viruses in acutely infected PBMC in two experiments. […] In the same assay, the EC50 for TIBO [(+)-(5s)-4,5,6,7-tetrahydro-5methyl-6-(3-methyl-2-butenyl)imidazo(4,5,1-jk)(1,4)benzodiazepin-2(1 H)-thione] R82150 increased >500-fold (data not shown).

The test system of the next series is HIV-1 and HIV-2. Kind of series: Antiviral activity in acutely or chronically infected human lymphocytes (summary statements). The format is cell-based. From the text:
The water soluble C60 derivatives for inactivating HIV by interacting with HIV by Van der Waals contacts with the nonpolar HIVP surface, are substituted symmetrically with organic moieties comprising from 1 to about 20 carbon atoms each and optionally further comprising polar heteroatoms, such as oxygen and nitrogen. The preferred fullerene derivatives are diamino derivatives synthesized in three steps from C60 via a suitably substituted diphenyldiazomethane. High-resolution mass spectrometric analysis of these compounds is possible only under the mild conditions of matrix-assisted laser desorption/ionization Fourier transform mass spectrometry. Direct infrared or ultraviolet laser desorption degrades the compounds so that only C60 ions are observed, in either positive or negative mode. Virus inactivation assays are provided for confirming activity of the C60 derivatives against human immunodeficiency virus type 1 (HIV-1) and HIV-2. […] Inhibition of protease (HIVP) and reverse transcriptase (HIVRT) is also shown.
The therapeutic and prophylactic efficacy of the compounds of this invention has been shown by in vitro assays. […]

A further series is described as follows: Solubility in water. The settings on record: pH≧7.

`O=C(O)CCC(=O)NCCc1ccc(C2(c3ccc(CCNC(=O)CCC(=O)O)cc3)C34c5c6c7c8c9c%10c(c%11c%12c3c3c5c5c%13c6c6c7c7c9c9c%14c%10c%10c%11c%11c%12c%12c3c3c5c5c%13c%13c6c6c7c9c7c9c%14c%10c%10c%11c%11c%12c3c3c5c5c%13c6c7c6c9c%10c%11c3c56)C824)cc1` [Compound 2c, bis(monosuccinimide) derivative of p,p′-bis(2-aminoethyl)diphenyl-C60] gave a half-maximal inhibitory concentration (IC50) in [1] of more than 100 µM. Moreover, the “cytotoxicity in uninfected PBMC (words)” value in the series with PBMC is reported as “No cytotoxicity; also recorded: noncytotoxic”; in the series on PBMC (listed as bis(monosuccinimide) derivative of p,p′-bis(2-aminoethyl)-diphenyl) it was “no cytotoxicity”. The IC50 at 6 days in the series “Cytotoxicity in H9 cells” was more than 100 µM. For the same compound, the “cytotoxicity in H9 cells” value in the series on H9 cells was “No cytotoxicity; also recorded: noncytotoxic”. Besides, the EC50 is 50 µM in the series on HIV-1; 2 to 8 µM in the series on HIV-1 HI 12.2; 7 µM with HIV-1 and HIV-2 (Human immunodeficiency virus 1, H9, HIV-1, summary, read-out: EC50, acutely and chronically HIV-1 infected PBMC and chronically infected H9 cells); approximately 6 µM with HIV-1 and HIV-2 (Lymphocyte, average over assays, read-out: EC50 averaging, HIV-1 and HIV-2 in acute or chronically infected human lymphocytes). In the series on HIV-1LAI, the “reduction of virus infectivity relative to untreated control” value is recorded as “more than 95%”. Moreover, the “solubility in water” value in “Solubility in water” is “soluble”.

The values above are taken from patent publication US20010041801A1, “Water soluble fullerenes with antiviral activity” (The Regents of the University of California, priority 1994, published 2001).
